Assay results: patent EP3587389A1 (INSTYTUT FARMACEUTYCZNY, priority 2018, dated 2020)

What was measured:
[1] = Oxidation inhibition of the o/w emulsion (lipid peroxidation, TBARS); settings: for o/w emulsion (Inhibition of the oxidation (%)) / o/w emulsion (Inhibition of the oxidation), footnoted symbol: determined at 100 µM, flaxseed oil emulsion, oxidation induced with Mohr's salt, TBARS; for protection against the induced oxidation (in words): o/w emulsion model
Experimental: The emulsion was prepared according to the method described in Zarnowski R. et al., The oil of Adenanthera pavonina L. seeds and its emulsions. Z Naturforsch C. 2004;59(5-6):321-326; Jaromin A. et al., Emulsions of oil from Adenanthera pavonina L. seeds and their protective effect Cell Mol Biol Lett 2006; 11(3): 438-448). Briefly, 15 mg of sorbitan sesquioleate was added to 50 mg of flaxseed oil and vigorously mixed for 20 min. Then, 2 ml of an aqueous phase consisting of 10 mM Tris-HCl buffer, pH 7.4, was added. The sample was further vortexed for 15 min. and sonicated (Sonics & Materials Inc., Newton, CT, USA) for 10 min. in a coldwater bath. Then, 20 µl of the 1:1 (v/v) buffer diluted emulsion, methanolic solution of each compound (final concentration 100 µM) and 10 mM Tris-HCl buffer, pH 7.4, were mixed and incubated at room temperature for 10 min. To induce oxidation, 100 µl of freshly prepared aqueous solution of ammonium iron(II) sulfate hexahydrate (Mohr's salt) (5 mM) was added (total volume of the sample was 1 ml) and the samples were incubated at room temperature for 15 min. Flaxseed oil emulsion without any compound addition was included as control. After the oxidation step, determination of the thiobarbituric acid reacting substances (TBARS) was performed (Buege J.A., Aust S.D., Microsomal lipid peroxidation. Methods Enzymol. 1978;52:302-310). 2 ml of the thiobarbituric acid (TBA) reagent (15% trichloroacetic acid, 0.25 N HCl and 0.5% TBA) was added to each sample, mixed and heated at 100°C for 30 min. After centrifugation at 13 000 rpm for 10 min, the absorbance of the supernatants was measured at 535 nm. The obtained values were used to calculate the % of the oxidation inhibition according to the following equation: Inhibition of the oxidation (%) = [1−(absorbance of the sample/absorbance of control)] × 100 [formula]

[2] = DPPH free radical scavenging assay; settings: for IC50: 30 min at room temperature, absorbance at 517 nm; for scavenging abilities (in words): DPPH assay
Experimental: J Nat Prod. 2010 Feb 26; 73(2): 252-4. doi: 10.1021/np900519d.) with a modification. Briefly, different concentrations of the compounds (100 µl) were mixed with 900 µl of the 0.04 mg/ml methanolic solution of DPPH. The mixture was kept at room temperature for 30 min, and then the absorbance at 517 nm was measured. The half maximal inhibitory concentration (IC50) was used as an indicating measure of the scavenging activity.

Row | SMILES | o/w emulsion (Inhibition of the oxidation (%)) [1] | IC50 [2] | o/w emulsion (Inhibition of the oxidation), footnoted symbol [1] | scavenging abilities (in words) [2] | protection against the induced oxidation (in words) [1]
1 | O=C(O)/C=C/c1ccc(O)c(O)c1 [CA, Caffeic acid] | 26.1 ± 2.9% | 32.2 µM | – | – | –
2 | CC(=O)/C=C/c1ccccc1O [Compound 6, 4-(2'-hydroxyphenyl)-3(E)-buten-2-one] | – | > 5000 µM | n.a.^b (no protection detected) | no scavenging abilities | –
3 | COC(=O)/C=C/c1ccc(O)cc1 [Compound 8, 3-(4'-Hydroxyphenyl)-(E)-propenoic acid methyl ester] | 22.7 ± 6.4% | > 5000 µM | – | no scavenging abilities | –
4 | COC(=O)/C=C/c1ccccc1O [Compound 9, 3-(2'-Hydroxyphenyl)-(E)-propenoic acid methyl ester] | 2.6 ± 1.5% | > 5000 µM | – | no scavenging abilities | –
5 | COC(=O)/C=C/c1cccc(O)c1 [Compound 10, 3-(3'-Hydroxyphenyl)-(E)-propenoic acid methyl ester] | 18.4 ± 2.2% | > 5000 µM | – | no scavenging abilities | –
6 | COC(=O)/C=C/c1ccc(O)cc1O [Compound 11, 3-(2',4'-dihydroxyphenyl)-(E)-propenoic acid methyl ester] | 33.7 ± 6.5% | 1020 µM | – | – | –
7 | COC(=O)/C=C/c1ccc(O)c(O)c1O [Compound 12, 3-(2',3',4'-trihydroxyphenyl)-(E)-propenoic acid methyl ester] | 55.5 ± 2% | 18.6 µM | – | – | highest protection against the induced oxidation
8 | COC(=O)/C=C/c1cc(O)c(O)cc1O [Compound 13, 3-(2',4',5'-trihydroxyphenyl)-(E)-propenoic acid methyl ester] | 38.6 ± 2.3% | 53.3 µM | – | – | highest protection against the induced oxidation
9 | COC(=O)/C=C/c1ccc(O)c(OC)c1 [Compound 14, 3-(4'-hydroxy-3-metoxyphenyl)-(E)-propenoic acid methyl ester] | 14.8 ± 2% | 58.9 µM | – | – | –
10 | CC(=O)/C=C/c1cccc(O)c1 [Compound 15, 4-(3'-hydroxyphenyl)-3(E)-buten-2-one] | – | – | n.a.^b (no protection detected) | no scavenging abilities | –
11 | CC(=O)/C=C/c1ccc(O)cc1 [Compound 16, 4-(4'-hydroxyphenyl)-3(E)-buten-2-one] | 6.8 ± 4.4% | > 5000 µM | – | no scavenging abilities | –
12 | CC(=O)/C=C/c1ccc(O)cc1O [Compound 17, 4-(2',4'-dihydroxyphenyl)-3(E)-buten-2-one] | 4.6 ± 1.3% | 688 µM | – | – | –
13 | CC(=O)/C=C/c1ccc(O)c(O)c1O [Compound 18, 4-(2',3',4'-trihydroxyphenyl)-3(E)-buten-2-one] | 28.6 ± 4% | 16.8 µM | – | – | highest protection against the induced oxidation
14 | COc1cc(/C=C/C(C)=O)ccc1O [Compound 20, 4-(3'-methoxy-4'-hydroxyphenyl)-3(E)-buten-2-one] | 7.9 ± 2.1% | 61.8 µM | – | – | –
